Assay results: US10695330B2, “Methods of treatment” (Global Blood Therapeutics, Inc., priority 2015, dated 2020)

How the values were obtained:
[1] = tested on: healthy mice subjected to extreme hypoxia; test: Tolerance to hypoxia mouse model: systemic parameters, tissue hypoxia, survival; type: in vivo; settings: for survival: after 1.5 hours of exposure to 5% O2 hypoxia
Protocol: Male, C57BL mice were fitted with a dorsal skinfold window chamber for direct visualization of an intact microvascular bed (Yalcin & Cabrales 2012). After the window chamber was implanted, the animals were left to recover for at least 2 days, before undergoing surgery a second time for arterial (carotid) catheter implantation (PESO tubing). After two day of recovery, mice were dosed orally with Compound 1 (70 or 140 mg/kg) or vehicle only and Hb O2 affinity was determined by hemoximetry. Two hours post dose, conscious mice were placed in a restraining tube with a longitudinal slit from which the protruding window chamber provided a microscopic stage for observation. In this setup, gas flow rate (0.2 L/min) into the tube is diffused by a cotton filter barrier. Baseline measurements for normoxia (21% O2) were completed within an hour of restraining mice. The animals were then exposed to stepwise hypoxia by decreasing the O2 concentration to 15, 10 and 5%. Animals were kept at each hypoxic level for 30 min. Mice were allowed 15 min of acclimatization at each new hypoxic level before measurements were taken. During hypoxia, changes in systemic and microvascular hemodynamics, blood gases, blood lactate, tissue partial pressure of O2 (PO2), tissue hypoxia and tolerance to hypoxia were evaluated. At each time point, mice with adequate systolic blood pressure (BP) were counted as survived and mice with severe hypotension (BP≤60 mmHg) were counted as non-survived and were euthanized.
MAP (mean arterial pressure) and heart rate (HR) were recorded continuously from Carotid catheter. Hct was measured from centrifuged arterial blood samples taken in heparinized capillary tubes. Arterial blood was collected in heparinized glass capillaries (50 μL) and immediately analyzed for PO2, PCO2, base excess, and pH. Arterial Hb saturations were measured using a CO-Oximeter.
High resolution non-invasive microvascular PO2 measurements were made using phosphorescence quenching microscopy (PQM). Tissue PO2 was measured in regions in between functional capillaries (Yalcin & Cabrales 2012). Hb O2 saturations in the microcirculation are calculated using the O2 equilibrium curves measured.
Tissue hypoxia was studied via immunohistochemistry staining for pimonidazole bound to hypoxic zones in vital tissues. Mice received a bolus intraperitoneal injection (IP) injection of the hypoxic marker Hypoxyprobe-1 (pimonidazole 40 mg/kg) and 5 mg/kg Hoechst 33342 diluted in PBS (total volume, 100 μL). At the end of the study, mice were euthanized and tissues extracted for histology. Sections are stained with monoclonal antibody against pimonidazole. Images for pimonidazole antibody-stained areas and Hoechst were recorded. Results are reported as the ratio of pimonidazole stained area to the total cellular area by co-localization of pimonidazole and Hoechst.

[2] = tested on: mice with bleomycin-induced fibrosis; test: Bleomycin induced mouse model of hypoxemia and pulmonary fibrosis; type: in vivo
Protocol: Forty-eight C57B/L6 male mice aged 7-8 weeks were obtained from Simonsen Laboratory, Gilroy, Calif. The mice were ear tagged and weighed prior to the start of the study. The animals were distributed into four groups with twelve animals in each group. Body weights of all mice were recorded daily during the study. Animals in groups 2, 3 and 4 were administered 3 U/kg bleomycin sulfate USP (Teva Pharmaceuticals) via oropharyngeal route […] (see Walters, D. M. and S. R. Kleeberger (2008). “Mouse models of bleomycin-induced pulmonary fibrosis.” Curr Protoc Pharmacol Chapter 5: Unit 5 46.) Animals in group 1 were administered normal saline via oropharyngeal route.
Compound 1 (formulated in dimethylacetamide: polyethylene glycol 400 (PEG400): 40% cavitron at a 1:5:4 ratio) was administered at either low dose (first day 50 mg/kg followed by 40 mg/kg daily) or high dose (first day 150 mg/kg followed by 85 mg/kg daily) via oral gavage to bleomycin treated mice once daily from day 8 to day 15. Animals in group 1 were administered vehicle via oral gavage. The dosing volume was 200 μL. The study animals were sacrificed on day 15 at 4 hours post final dose.
Samples for hemoximetry and pharmacokinetics (PK) were taken 4 hours following the last dose of the dosing regimen. BAL fluid was collected from the lungs of the animals by lavaging the lung with 1 ml Hanks balanced salt media (HBSS). Lungs were harvested from each animal and weighed. They were then inflated by ˜0.5 mL of 10% NBF and fixed in a formalin container for subsequent histopathological analysis.
Hypoxia is a feature of IPF, and oxygen saturation measurements are often used clinically to evaluate the presence and severity of hypoxia. Responses to hypoxia in mice treated with Compound 1 were first evaluated by measuring arterial oxygen saturation (SaO2). On day 7 and 14 after bleomycin or saline instillation, 50 μL of arterial blood from the tail artery were used for measurement of arterial oxygen saturation (SaO2) using whole blood GEM OPL co-oximeter (Instrumentation Laboratory, MA). An additional aliquot of 100 μL of blood were collected from tail artery and arterial blood gases using the i-STAT Handheld Blood Analyzer (ABBOTT) were measured using CG4+ cartridges. For each mouse, SaO2 and arterial oxygen tension (pO2) were measured. […] In contrast, arterial oxygenation levels of vehicle treated mice further declined throughout the study (FIG. 4C). The arterial blood gases (ABG) were also analyzed on day 7 and day 14 (FIG. 4C). Data are expressed as means±SEM. […] In vehicle-treated bleomycin mice the pO2 reached a further decline at day 14.
In this bleomycin model, mice develop extensive pulmonary fibrosis as well as pulmonary inflammation; thus, the effect of Compound 1 treatment on the phenotype of pulmonary inflammatory cells was examined. The BAL fluid was centrifuged at 1,000 rpm at 4° C. for 5 minutes. The BAL cell pellets were suspended in 2 mls of 1× Pharmalyse buffer (BD Bioscience) to lyse the RBCs. PBS+2% FBS were added to stop the lysis reaction and cells centrifuged again. Leukocytes in the cell pellet were counted using a hemocytometer and the trypan blue exclusion method.
Pulmonary fibrosis was induced by administering mice a single dose of bleomycin. Collagen content of was determined by quantifying total soluble collagen in the BALF supernatant using the Sircol collagen dye binding assay according to the manufacturer's instructions (Biocolor Ltd, Carrick Fergus, UK).
Lungs were harvested from each animal and weighed at Day 15.
The histopathological analysis was conducted at Seventh Wave Laboratories, Chesterfield, Mo. The lung samples were processed and embedded with all lobes from each mouse in one paraffin block. Coronal sections through the four major lobes were stained with Masson's Trichrome. For each animal, consecutive lung fields were examined in a raster pattern using a 20× objective lens and a 10× or 40× ocular lens (200× or 800×). […]

macrophages = test: Production of TNF-α and IL-6 by macrophages; type: cell-based; settings: in vitro
Text: (§1) Reactive oxygen species (ROS) released from activated white blood cells cause lung injury as well as fibrotic changes in patients with IPF. […] Thus, the compounds described herein could also provide a method to inhibit the adverse effects of inflammation in a patient. Reduction in systemic pro-inflammatory cytokines (tumor necrosis alpha and interleukin-6) also has the potential to exert a broad anti-inflammatory effect which would supplement the beneficial effect of alleviation of hypoxemia via increased hemoglobin-O2 affinity.

activated neutrophils = test: Oxidative burst in activated neutrophils; type: cell-based; settings: in vitro
Text: as §1

O=Cc1c(O)cccc1OC[C@@H]1CCCCN1C(=O)c1cccnc1 [Compound 1, (S)-2-hydroxy-6-((1-nicotinoylpiperidin-2-yl)methoxy)benzaldehyde]
survival ([1]; 70 mg/kg): 16% | survival ([1]; 140 mg/kg): 83% | arterial blood pH ([1]; during 10% and 5% O2 hypoxia): normal during hypoxia | arterial blood oxygen saturation (SaO2) ([1]; during hypoxia, 70 or 140 mg/kg oral, vs control): dose-dependently increased SaO2 relative to control | heart rate (HR) ([1]; during hypoxia, vs control): sustained higher | mean arterial pressure (MAP) ([1]; during hypoxia, vs control): sustained higher mean BP | blood lactate levels ([1]; extreme hypoxia (5% O2), vs control): reduced lactate levels relative to control | hypoxic tissues positively stained by pimonidazole ([1]; extreme hypoxia, vs control): reduced hypoxic tissues positively stained by pimonidazole relative to control | arterial blood partial pressure of O2 (PaO2) ([1]; stepwise hypoxia, 70 or 140 mg/kg oral): the PaO2 was the same in Compound 1-treated and control mice | arterial oxygen tension (pO2) ([2]; day 14): tendency for an increase pO2 or prevention of further decline of pO2 | arterial oxygen saturation (SaO2) ([2]; day 14, after seven consecutive days of treatment, low and high dose): return toward control values | improvement of overall Ashcroft scores ([2]; day 15, P<0.01): approximately 50% | collagen protein (total soluble collagen in BALF supernatant, Sircol) ([2]; day 15, P<0.05): significant reduction in collagen protein in the lungs | total inflammatory cells recovered in BAL fluid ([2]; day 15, P<0.05): significant reduction in total inflammatory cells recovered in BAL fluid | lung weight ([2]; day 15, vs bleomycin vehicle control, P<0.01): significantly heavier than lungs from Compound 1-treated mice | collagen deposition (Masson's trichrome histology) ([2]; day 15 lung sections, low and high dose): diminished collagen deposition | anti-inflammatory activity (TNF-α and IL-6 production) (macrophages): anti-inflammatory activity | anti-oxidative activity (oxidative burst) (activated neutrophils): displayed anti-oxidative
